# Measurements from patent US20240336566A1, “CRYSTALLINE FORMS OF A COMPOUND FOR THE TARGETED DEGRADATION OF THE ANDROGEN RECEPTOR” (Arvinas Operations, Inc., priority 2023, published 2024).
# Key:
# Type in all cases: physicochemical
# [1] = Thermodynamic solubility determination in buffers (HPLC)
# From the text: No clear solubility advantage of the salts was noted over Compound A free base.
# [2] = 7-day stability assessment (appearance, HPLC, XRPD); settings: for Reported Purity / Total impurities: HPLC; for purity retained after stability storage (HPLC): after 7 days at 40° C./75% RH (open vial), 80° C. (closed vial), ambient light (closed vial)
# Procedure: The material was gently ground to release any agglomerates and loaded onto a multi-well plate with Kapton or Mylar polymer film to support the sample. […] Data were visualized and images generated using the HighScore Plus 4.7 desktop application (PANalytical, 2θ17).
# They all remained white or off-white solids. • XRPD analysis determined the patterns were retained.
# [3] = Primary salt screen: XRPD post temperature cycling/evaporation, post drying and post storage at 40° C./75% RH; settings: post drying and 40° C./75% RH
# Procedure: • 30 mg samples of Compound A were weighed out into 2 mL screw cap sample vials for 96 experiments. To these, 200 μL of the appropriate solvent system was added to dissolve the material or form a slurry. See Table 16 for the solvent systems selected for the primary salt screen.
# • 1.05 eq. of solid counterions were weighed into six separate vials each and 1 molar stock solutions were prepared for liquid counterions in 5 mL of THF. See Table 17 for selected counterions and mass/volume needed for 1.05 eq. additions. • 100 μL of the appropriate solvent was added to the solid counterions.
# The solution/slurry of counterion was added to the solution/slurry of the free base material.
# • The samples were placed in an incubator shaker to temperature cycle between ambient and 40° C. over 4 hour cycles. • After ca. 72 hours of temperature cycling, observations were noted, see Table 19.
# • Where slurries were obtained, the solids were isolated via centrifugation. Solids and gels were analyzed by XRPD.
# Any samples that were clear solutions after temperature cycling were left to evaporate at ambient conditions. See Table 20 for observations made after evaporation. Solids obtained through evaporation were analyzed by XRPD.
# • The samples obtained from temperature cycling were dried under vacuum at 40° C. for ca. 20 hours while the samples obtained from evaporation were dried under vacuum at 40° C. for ca. 4 hours. […]
# [4] = Buffer pH 1.2, 25° C., cf concentration of free base, listed as Compound A Besylate
# [5] = Buffer pH 3.0, 25° C., LOQ 0.00025 mg/mL
# [6] = Buffer pH 4.0, 25° C., LOQ 0.00025 mg/mL
# [7] = input material before storage (baseline of the stability assessment)
# [8] = Buffer pH 1.2, 25° C., cf concentration of free base, listed as Compound A Phosphate
# [9] = Buffer pH 1.2, 25° C., cf concentration of free base, listed as Compound A Tosylate
# [10] = buffer, 25 °C, pH 3, aqueous buffer, thermodynamic from solid, Buffer pH 3.0, LOQ 0.00025 mg/mL
Structure (SMILES),"0 Hr Solubility [1, 5]","4 Hr Solubility [1, 5]","24 Hr Solubility [1, 5]","0 Hr Solubility [1, 6]","4 Hr Solubility [1, 6]",Reported Purity ([2]; after 7 days at 80° C.),Total impurities ([2]; after 7 days at 80° C.),Reported Purity ([2]; after 7 days at ambient),Total impurities ([2]; after 7 days at ambient),purity retained after stability storage (HPLC) [2],assessment of salt form in the primary salt screen [3],other results
COc1cc(O[C@H]2C(C)(C)[C@H](NC(=O)c3ccc(N4CCC(CN5CCN(c6ccc(C(=O)N[C@H]7CCC(=O)NC7=O)c(F)c6)CC5)CC4)cc3)C2(C)C)ccc1C#N [besylate Pattern 1],<0.25 µg/mL,<0.25 µg/mL,<0.25 µg/mL,<0.25 µg/mL,<0.25 µg/mL,97.56 Area %,2.44 Area %,97.17 Area %,2.83 Area %,> 97 % relative area,stable hydrates,"0 Hr Solubility [1, 4]: 13.3 µg/mL; 4 Hr Solubility [1, 4]: 7.3 µg/mL; 24 Hr Solubility [1, 4]: 9.3 µg/mL; 24 Hr Solubility ([1]; Buffer pH 4.0, 25° C., LOQ 0.00025 mg/mL, listed as Compound A Besylate): < 0.25 µg/mL; Reported Purity ([2]; after 7 days at 40° C./75% RH): 97.31 Area %; Total impurities ([2]; after 7 days at 40° C./75% RH): 2.69 Area %; Reported Purity [2, 7]: 97.33 Area %; Total impurities [2, 7]: 2.67 Area %"
COc1cc(O[C@H]2C(C)(C)[C@H](NC(=O)c3ccc(N4CCC(CN5CCN(c6ccc(C(=O)N[C@H]7CCC(=O)NC7=O)c(F)c6)CC5)CC4)cc3)C2(C)C)ccc1C#N [phosphate Pattern 1],<0.25 µg/mL,<0.25 µg/mL,<0.25 µg/mL,<0.25 µg/mL,<0.25 µg/mL,,,,,,stable hydrates,"0 Hr Solubility [1, 8]: 5.9 µg/mL; 4 Hr Solubility [1, 8]: 29.1 µg/mL; 24 Hr Solubility [1, 8]: 30.6 µg/mL; 24 Hr Solubility ([1]; Buffer pH 4.0, 25° C., LOQ 0.00025 mg/mL, listed as Compound A Phosphate): <0.25 µg/mL; thermodynamic solubility ([1]; pH 1.2, after 24 hours, 25° C., as concentration of Compound A free base): 30.6 µg/mL"
COc1cc(O[C@H]2C(C)(C)[C@H](NC(=O)c3ccc(N4CCC(CN5CCN(c6ccc(C(=O)N[C@H]7CCC(=O)NC7=O)c(F)c6)CC5)CC4)cc3)C2(C)C)ccc1C#N [tosylate Pattern 1],,,,<0.25 µg/mL,<0.25 µg/mL,96.76 Area %,3.24 Area %,97.09 Area %,2.91 Area %,> 96 % relative area,stable hydrates,"0 Hr Solubility [1, 9]: 12.2 µg/mL; 4 Hr Solubility [1, 9]: 15.4 µg/mL; 24 Hr Solubility [1, 9]: 6.3 µg/mL; 24 Hr Solubility ([1]; Buffer pH 4.0, 25° C., LOQ 0.00025 mg/mL, listed as Compound A Tosylate): <0.25 µg/mL; solubility at 0 h [1, 10]: < 0.25 µg/mL; solubility at 4 h [1, 10]: < 0.25 µg/mL; solubility at 24 h [1, 10]: < 0.25 µg/mL; HPLC purity ([2]; 7 days at 40° C./75% RH (open vial)): 97.30 % relative area; Total impurities (HPLC) ([2]; after 7 days at 40° C./75% RH): 2.70 Rel. Area %; XRPD pattern after stability storage ([2]; after 7 days at each stability condition): gained an additional peak; Total impurities (HPLC) ([2]; before stability testing): 2.56 Rel. Area %; HPLC purity ([2]; before stability testing (condition N/A)): 97.44 % relative area"
